Experimental data: ChEMBL document CHEMBL2176907, “Identification of multiple 5-HT₄ partial agonist clinical candidates for the treatment of Alzheimer's disease” (J Med Chem, 2012)
Active and inactive are the calls of the source. No cut-off for these calls is given here.

Tests used:
Canis familiaris [1] = test: Cardiotoxicity in beagle dog assessed as increase in systolic blood pressure at 0.1 mg/kg administered as repeated dose for 7 days measured up to 1 month; assay type: toxicity, organism-based, Canis lupus familiaris, Artery; design: dose 0.1 mg/kg; conditions: in vivo, 168 h
[2] = target: T1, 5-hydroxytryptamine receptor 4 (Homo sapiens, UniProt Q13639); test: biochemical
T1 sequence (Q13639 whole entry): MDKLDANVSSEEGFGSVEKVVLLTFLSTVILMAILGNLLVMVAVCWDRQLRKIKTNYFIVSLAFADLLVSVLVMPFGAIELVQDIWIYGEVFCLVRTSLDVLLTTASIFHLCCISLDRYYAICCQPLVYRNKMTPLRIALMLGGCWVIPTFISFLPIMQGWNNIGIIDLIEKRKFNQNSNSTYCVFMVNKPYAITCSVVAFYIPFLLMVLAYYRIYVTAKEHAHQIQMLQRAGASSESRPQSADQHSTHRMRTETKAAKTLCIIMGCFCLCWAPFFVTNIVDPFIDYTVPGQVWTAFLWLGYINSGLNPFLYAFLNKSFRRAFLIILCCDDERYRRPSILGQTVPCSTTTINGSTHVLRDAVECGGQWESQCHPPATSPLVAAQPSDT
Description: Displacement of [3H]GR113808 from human 5HT4D receptor expressed in HEK293 cells after 30 mins by liquid scintillation counting

[3] = target: T1, 5-hydroxytryptamine receptor 4; test: biochemical; remark: listed apart in the source
Description: Displacement of [3H]GR113808 from human 5HT4A receptor expressed in HEK293 cells after 30 mins by liquid scintillation counting

[4] = target: T2, 5-hydroxytryptamine receptor 4 (Rattus norvegicus, UniProt Q62758)
T2 sequence (Q62758 whole entry): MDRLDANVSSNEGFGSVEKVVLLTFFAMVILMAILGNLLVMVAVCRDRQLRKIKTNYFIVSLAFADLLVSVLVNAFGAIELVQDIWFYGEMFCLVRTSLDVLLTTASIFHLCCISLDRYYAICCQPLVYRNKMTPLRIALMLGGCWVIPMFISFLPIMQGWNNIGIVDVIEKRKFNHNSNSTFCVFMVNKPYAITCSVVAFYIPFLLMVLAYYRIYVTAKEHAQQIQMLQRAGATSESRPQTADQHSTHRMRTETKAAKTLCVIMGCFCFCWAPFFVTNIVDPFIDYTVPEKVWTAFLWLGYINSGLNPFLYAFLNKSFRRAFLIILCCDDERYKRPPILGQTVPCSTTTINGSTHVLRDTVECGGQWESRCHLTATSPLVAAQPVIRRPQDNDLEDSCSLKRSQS
Description: Displacement of [3H]GR113808 from 5HT4 receptor in rat striatal membrane after 30 mins by liquid scintillation counting

[5] = Oral bioavailability in rat; assay type: ADME, organism-based; conditions: in vivo
Plasma = test: Free AUC (0 to 4 hrs) in sc dosed Sprague-Dawley rat plasma by LC-MS/MS analysis; assay type: ADME, organism-based; conditions: in vivo
Rattus norvegicus [6] = test: Gastrointestinal toxicity in male Sprague-Dawley rat assessed as mucosal injury at 100 mg/kg administered as repeated dose for 7 days measured up to 14 days; assay type: organism-based; design: dose 100 mg/kg; conditions: in vivo
[7] = Clearance in iv dosed rat; assay type: ADME, organism-based; conditions: in vivo
Rattus norvegicus [8] = test: Displacement of [3H]SB207145 from 5HT4 receptor in sc dosed Sprague-Dawley rat striatal membrane incubated for 45 mins prior to [3H]SB207145-adminsitration measured after 15 mins; assay type: functional, organism-based; conditions: Striatum
[9] = target: T2, 5-hydroxytryptamine receptor 4; remark: listed apart in the source
Description: Agonist activity at rat 5HT4S receptor expressed in HEK293 cells assessed as increase in cAMP production after 30 mins by HTRF assay

MDR1 = test: in vitro; conditions: dog, MDCK-MDR1
Description: Efflux ratio of permeability from basal to apical to apical to basal side of MDCK cells expressing MDR1 at 2 uM after 5 hrs by transwell assay

[10] = Intrinsic clearance in rat liver microsomes; assay type: ADME, Microsome; conditions: read-out: CLH
[11] = Intrinsic clearance in human liver microsomes; assay type: ADME, Microsome; conditions: read-out: CLH
Canis familiaris [12] = test: Neurotoxicity in beagle dog assessed as convulsions at 30 mg/kg administered as repeated dose for 7 days measured up to 14 days; assay type: toxicity, organism-based, Canis lupus familiaris; design: dose 30 mg/kg; conditions: in vivo
[13] = target: T2, 5-hydroxytryptamine receptor 4; remark: listed apart in the source
Description: Agonist activity at rat 5HT4L receptor expressed in HEK293 cells assessed as increase in cAMP production after 30 mins by HTRF assay

[14] = target: T1, 5-hydroxytryptamine receptor 4; test: Agonist activity at human 5HT4D receptor expressed in HEK293 cells assessed as cAMP production after 30 mins by HTRF assay relative to 5HT; assay type: functional, cell-based
Canis familiaris [15] = test: Gastrointestinal toxicity in beagle dog assessed as decrease in food intake administered as repeated dose for 7 days measured up to 14 days; assay type: organism-based, Canis lupus familiaris; conditions: in vivo
Brain = test: Free AUC (0 to 4 hrs) in sc dosed Sprague-Dawley rat brain by LC-MS/MS analysis; assay type: ADME, organism-based; conditions: in vivo
Rattus norvegicus [16] = test: Gastrointestinal toxicity in female Sprague-Dawley rat assessed as reduction in body weight at 30 mg/kg administered as repeated dose for 7 days measured up to 14 days; assay type: organism-based; design: dose 30 mg/kg; conditions: in vivo
[17] = target: 5-hydroxytryptamine receptor 4 (Rattus norvegicus) (UniProt Q62758); test: Agonist activity at 5HT4 receptor in rat oesophagus assessed as reversal of carbamylcholine-induced contraction at 10 uM incubated at 7 mins post carbamylcholine-challenge measured after 30 mins relative to 5HT; assay type: functional
5-hydroxytryptamine receptor 4 (Rattus norvegicus), sequence (Q62758 whole entry): as above

[18] = target: T1, 5-hydroxytryptamine receptor 4; test: Agonist activity at human 5HT4D receptor expressed in HEK293 cells assessed as cAMP production after 30 mins by HTRF assay; assay type: functional, cell-based
[19] = target: T1, 5-hydroxytryptamine receptor 4
Description: Agonist activity at human 5HT4B receptor expressed in HEK293 cells assessed as increase in cAMP production after 30 mins by HTRF assay

[20] = Oral bioavailability in dog; assay type: ADME, organism-based, Canis lupus familiaris; conditions: in vivo
Rattus norvegicus [21] = test: Gastrointestinal toxicity in male Sprague-Dawley rat assessed as reduction in body weight at 100 mg/kg administered as repeated dose for 7 days measured up to 14 days; assay type: organism-based; design: dose 100 mg/kg; conditions: in vivo
[22] = Intrinsic clearance in dog liver microsomes; assay type: ADME, Canis lupus familiaris, Microsome; conditions: read-out: CLH
[23] = Ratio of free drug concentration in brain to free drug concentration in plasma in sc dosed Sprague-Dawley rat; assay type: ADME, organism-based; conditions: read-out: K(p,uu,brain)
Rattus norvegicus [24] = test: Gastrointestinal toxicity in Sprague-Dawley rat assessed as decrease in food intake administered as repeated dose for 7 days measured up to 14 days; assay type: organism-based; conditions: in vivo
[25] = target: T2, 5-hydroxytryptamine receptor 4; remark: listed apart in the source
Description: Agonist activity at rat 5HT4E receptor expressed in HEK293 cells assessed as increase in cAMP production after 30 mins by HTRF assay

Canis familiaris [26] = test: Gastrointestinal toxicity in beagle dog assessed as emesis at 20 mg/kg administered as repeated dose for 7 days measured up to 14 days; assay type: organism-based, Canis lupus familiaris; design: dose 20 mg/kg; conditions: in vivo
Rattus norvegicus [27] = test: Receptor occupancy of 5HT4 receptor in Sprague-Dawley rat brain at 5 mg/kg, sc up to 4 hrs; assay type: functional; conditions: route subcutaneous
[28] = target: T1, 5-hydroxytryptamine receptor 4; remark: listed apart in the source
Description: Agonist activity at human 5HT4A receptor expressed in HEK293 cells assessed as increase in cAMP production after 30 mins by HTRF assay

Rattus norvegicus [29] = test: Procognitive activity in Sprague-Dawley rat assessed as increase in acetylcholine level in prefrontal cortex at 5 mg/kg, sc after 3 hrs by brain microdialysis relative to control; assay type: functional, organism-based; design: dose 5 mg/kg
[30] = target: T1, 5-hydroxytryptamine receptor 4; test: biochemical; remark: listed apart in the source
Description: Displacement of [3H]GR113808 from human 5HT4E receptor expressed in CHO cells after 30 mins by liquid scintillation counting

[31] = target: T1, 5-hydroxytryptamine receptor 4; test: biochemical; remark: listed apart in the source
Description: Displacement of [3H]GR113808 from human 5HT4B receptor expressed in HEK293 cells after 30 mins by liquid scintillation counting

Rattus norvegicus [32] = test: Gastrointestinal toxicity in female Sprague-Dawley rat assessed as mucosal injury at 30 mg/kg administered as repeated dose for 7 days measured up to 14 days; assay type: organism-based; design: dose 30 mg/kg; conditions: in vivo
[33] = target: T1, 5-hydroxytryptamine receptor 4; remark: listed apart in the source
Description: Agonist activity at human 5HT4E receptor expressed in HEK293 cells assessed as increase in cAMP production after 30 mins by HTRF assay

[34] = Apparent permeability from apical to basal side of RRCK cells at 2 uM after 2 hrs by transwell assay; assay type: ADME, cell-based, Canis lupus familiaris, MDCKII-LE; conditions: dog, MDCK
[35] = Clearance in iv dosed dog; assay type: ADME, organism-based, Canis lupus familiaris; conditions: in vivo
CYP2D6 = CYP2D6 (Homo sapiens, UniProt P10635); test: Inhibition of CYP2D6 in human liver microsomes using dextromethorphan as substrate at 3 uM; assay type: ADME, Microsome; conditions: probe dextromethorphan
CYP2D6, sequence (P10635 whole entry): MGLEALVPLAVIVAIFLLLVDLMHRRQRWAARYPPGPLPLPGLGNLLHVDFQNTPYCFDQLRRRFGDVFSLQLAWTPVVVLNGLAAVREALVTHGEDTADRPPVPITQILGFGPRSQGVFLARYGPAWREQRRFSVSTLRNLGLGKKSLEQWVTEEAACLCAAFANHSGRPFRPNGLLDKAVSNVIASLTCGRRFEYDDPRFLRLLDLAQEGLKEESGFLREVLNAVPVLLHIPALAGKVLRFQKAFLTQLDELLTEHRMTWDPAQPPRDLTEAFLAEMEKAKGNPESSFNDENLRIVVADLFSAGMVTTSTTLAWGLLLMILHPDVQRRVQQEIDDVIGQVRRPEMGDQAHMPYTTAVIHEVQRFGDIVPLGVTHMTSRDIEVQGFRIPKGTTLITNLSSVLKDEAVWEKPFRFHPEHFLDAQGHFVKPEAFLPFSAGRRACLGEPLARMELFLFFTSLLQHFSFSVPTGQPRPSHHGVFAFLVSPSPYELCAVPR

Rattus norvegicus [36] = test: Procognitive activity in Wistar rat assessed as reversal of scopolamine-induced learning deficit at […], sc administered 30 mins prior to scopolamine-challenge measured on acquisition days 3 and 4 by Morris water maze testing; assay type: functional, organism-based; design: dose 0.032 mg/kg
Rattus norvegicus [37] = test: Gastrointestinal toxicity in male Sprague-Dawley rat assessed as reduction in body weight at 100 mg/kg administered as repeated dose for 7 days measured up to 1 month; assay type: organism-based; design: dose 100 mg/kg; conditions: in vivo, 168 h
Canis familiaris [38] = test: Neurotoxicity in beagle dog assessed as convulsions at 30 mg/kg administered as repeated dose for 7 days measured up to 1 month; assay type: toxicity, organism-based, Canis lupus familiaris; design: dose 30 mg/kg; conditions: in vivo, 168 h
Rattus norvegicus [39] = test: Gastrointestinal toxicity in Sprague-Dawley rat assessed as decrease in food intake administered as repeated dose for 7 days measured up to 1 month; assay type: organism-based; conditions: in vivo, 168 h
Rattus norvegicus [40] = test: Neurotoxicity in Sprague-Dawley rat assessed as convulsions at 100 mg/kg administered as repeated dose for 7 days measured up to 1 month; assay type: toxicity, organism-based; design: dose 100 mg/kg; conditions: in vivo, 168 h
Rattus norvegicus [41] = test: Receptor occupancy of 5HT4 receptor in Wistar rat at […], sc; conditions: route subcutaneous
Canis familiaris [42] = test: Gastrointestinal toxicity in beagle dog assessed as decrease in food intake administered as repeated dose for 7 days measured up to 1 month; assay type: organism-based, Canis lupus familiaris; conditions: in vivo, 168 h
Rattus norvegicus [43] = test: Procognitive activity in Sprague-Dawley rat assessed as increase in acetylcholine level in prefrontal cortex at 1 mg/kg, sc after 3 hrs by brain microdialysis relative to control; assay type: functional, organism-based; design: dose 1 mg/kg
Canis familiaris [44] = test: Gastrointestinal toxicity in beagle dog assessed as emesis at 30 mg/kg administered as repeated dose for 7 days measured up to 1 month; assay type: organism-based, Canis lupus familiaris; design: dose 30 mg/kg; conditions: in vivo, 168 h
Rattus norvegicus [45] = test: Receptor occupancy of 5HT4 receptor in Sprague-Dawley rat brain at 1 mg/kg, sc up to 4 hrs; assay type: functional; conditions: route subcutaneous
Canis familiaris [46] = test: Cardiotoxicity in beagle dog assessed as increase in systolic blood pressure at 10 mg/kg administered as repeated dose for 7 days measured up to 1 month; assay type: toxicity, organism-based, Canis lupus familiaris, Artery; design: dose 10 mg/kg; conditions: in vivo, 168 h
[47] = AUC (0 to 4 hrs) in sc dosed Sprague-Dawley rat CSF by LC-MS/MS analysis; assay type: ADME, organism-based; design: time < 4 hr, route subcutaneous

CC(C)n1c(=O)n(C(=O)NCC2CCN(CC3(O)CCOCC3)CC2)c2cc(F)ccc21
Activity (Canis familiaris [1]): Toxic | Ki [2]: 1.7 nM | Ki [3]: 4.4 nM | Ki [4]: 1.5 nM | bioavailability [5]: 40% | fAUC (Plasma): 0.0276 µM·h | Activity (Rattus norvegicus [6]): Toxic | clearance [7]: 12.6 mL/min/kg | Activity (Rattus norvegicus [8]): Dose-dependent effect | EC50 [9]: 0.9 nM | efflux ratio at 5 h, 2 µM (MDR1): 1.41 | CLint scaled [10]: 45.2 mL/min/kg | CLint scaled [11]: 24.3 mL/min/kg | Activity (Canis familiaris [12]): Toxic | EC50 [13]: 0.96 nM | Emax [14]: 86% | Activity (Canis familiaris [15]): Toxic | fAUC (Brain): 0.0443 µM·h | Activity (Rattus norvegicus [16]): Toxic | Activity [17]: 70% | EC50 [18]: 0.9 nM | EC50 [19]: 1.2 nM | bioavailability [20]: 100% | Activity (Rattus norvegicus [21]): Toxic | CLint scaled [22]: < 5.6 mL/min/kg | Kp uu [23]: 1.6 | Activity (Rattus norvegicus [24]): Toxic | EC50 [25]: 1.59 nM | Activity (Canis familiaris [26]): Toxic | Occ (Rattus norvegicus [27]): >90% | EC50 [28]: 0.38 nM | Activity (Rattus norvegicus [29]): Active | Ki [30]: 4.9 nM | Ki [31]: 5.5 nM | Activity (Rattus norvegicus [32]): Toxic | EC50 [33]: 0.98 nM | Papp A→B at 2 h, 2 µM [34]: 21.9 ×10⁻⁶ cm/s | clearance [35]: 40 mL/min/kg

CC(C)(O)COc1cccc2onc(OCC3CCN(CC4(O)CCOCC4)CC3)c12
Ki [2]: 3.6 nM | efflux ratio at 5 h, 2 µM (MDR1): 1.6 | CLint scaled [11]: 38 mL/min/kg | inhibition at 3 µM (CYP2D6): 21% | Emax [14]: 50% | EC50 [18]: 1.7 nM | Papp A→B at 2 h, 2 µM [34]: 35 ×10⁻⁶ cm/s

CCCCN1CCC(COc2noc3cccc(OCC4CCC4)c23)CC1
inhibition at 3 µM (CYP2D6): 93%

OC1(CN2CCC(COc3noc4cccc(O[C@@H]5CCOC5)c34)CC2)CCOCC1 [PF-04995274]
Activity (Rattus norvegicus [36]): Active | Activity (Rattus norvegicus [37]): Toxic | Activity (Canis familiaris [38]): Toxic | bioavailability [5]: 40% | fAUC (Plasma): 1.054 µM·h | clearance [7]: 81.8 mL/min/kg | Activity (Rattus norvegicus [8]): Dose-dependent effect | Activity (Rattus norvegicus [39]): Toxic | Activity (Rattus norvegicus [40]): Toxic | CLint scaled [10]: 48.9 mL/min/kg | Occ (Rattus norvegicus [41]): >90% | Activity (Canis familiaris [42]): Toxic | Activity (Rattus norvegicus [43]): Active | CLint scaled [11]: 33 mL/min/kg | inhibition at 3 µM (CYP2D6): 13% | fAUC (Brain): 0.706 µM·h | Activity (Canis familiaris [44]): Toxic | Occ (Rattus norvegicus [45]): >90% | bioavailability [20]: 47% | CLint scaled [22]: 27.9 mL/min/kg | Kp uu [23]: 0.7 | Activity (Canis familiaris [46]): Toxic | Papp A→B at 2 h, 2 µM [34]: 30 ×10⁻⁶ cm/s | AUC(0-t) at 4 h [47]: 0.519 µM·h | clearance [35]: 21.2 mL/min/kg

COCCCN1CCC(NC(=O)c2cc(Cl)c(N)c3c2OCC3)CC1
Activity [17]: Active
